Patent publication US20240277677A1, “SALT FORM AND CRYSTAL FORM THEREOF OF SULFONYLUREA RING SUBSTITUTED COMPOUND” (priority 2022, published 2024)

System: Klebsiella pneumoniae ATCC-BAA 2470 (NDM+)
Assay: Drug efficacy in thigh muscle infection model in vivo (immunodeficient CD-1 female mice)
Settings: for Average CFU of Mouse (bacterial load of thigh muscle tissue): end point 26 h
Method: 78 CD-1 female mice were divided into 26 cages, 3 mice per cage. The day of infection is counted as the 0 day.
150 mg/kg immunosuppressant cyclophosphamide was intraperitoneally injected on Day-4, and 100 mg/kg immunosuppressant cyclophosphamide was intraperitoneally injected again on Day-1 to obtain immunodeficient mice.
The strain Klebsiella pneumoniae ATCC-BAA 2470 (NDM+) was recovered on an MHA plate on Day-1. The recovered colonies were picked and dissolved in sterile saline to prepare a bacterial solution with a concentration of 5.95E+07 CFU/mL for use in mouse thigh muscle infection. The infection starting time was counted as 0 h, and 100μL of bacterial solution is injected into the thigh muscle of each mouse at 0 h, that is, the inoculation amount is 5.95E+06 CFU/mouse. 2 h after infection, the drugs were administered according to the experimental scheme. […] The mice in the 1st to 4th cage were administered at a total daily dose of 1600 mg/kg, the mice in the 5th to 8th cage were administered at a total daily dose of 480 mg/kg, the mice in the 9th to 12th cage were administered at a total daily dose of 160 mg/kg, the mice in the 13th to 16th cage were administered at a total daily dose of 48 mg/kg, the mice in the 17th to 20th cage were administered at a total daily dose of 16 mg/kg, the mice in the 21th to 24th cage were administered at a total daily dose of 4.8 mg/kg, and each dosage group was administered separately in four different dosage dividing manners, which were q3 h, q6 h, q12 h and q24 h separately. • (3) 26 h after infection: The endpoint of the experiment was at 26 h after infection, the thigh muscle tissue of the mice of the 1st to 26th cage was taken and placed in 10 mL sterile saline, the tissue was homogenized by a homogenizer, and the homogenate was dotted on a plate with gradient dilution, two duplications for each mouse. The bacterial load of the thigh muscle tissue of the mice was counted, and for the experimental results see Table 15.

NC[C@@H]1CN(C[C@@H]2[C@H](NC(=O)/C(=N\OC3(C(=O)O)CC3)c3csc(N)n3)C(=O)N2S(=O)O)S(=O)(=O)N1 (stereo in doubt)
Average CFU of Mouse (bacterial load of thigh muscle tissue) (group 1: total daily dose 1600 mg/kg, single dose 60 mg/kg, q3h s.c.): 2.18E+06 CFU/Mouse
Average CFU of Mouse (bacterial load of thigh muscle tissue) (group 2: total daily dose 1600 mg/kg, single dose 400 mg/kg, q6h s.c.): 2.45E+06 CFU/Mouse
Average CFU of Mouse (bacterial load of thigh muscle tissue) (group 3: total daily dose 1600 mg/kg, single dose 800 mg/kg, q12h s.c.): 3.80E+08 CFU/Mouse
Average CFU of Mouse (bacterial load of thigh muscle tissue) (group 4: total daily dose 1600 mg/kg, single dose 1600 mg/kg, q24h s.c.): 9.02E+09 CFU/Mouse
Average CFU of Mouse (bacterial load of thigh muscle tissue) (group 5: total daily dose 480 mg/kg, single dose 60 mg/kg, q3h s.c.): 2.20E+06 CFU/Mouse
Average CFU of Mouse (bacterial load of thigh muscle tissue) (group 6: total daily dose 480 mg/kg, single dose 120 mg/kg, q6h s.c.): 2.18E+08 CFU/Mouse
Average CFU of Mouse (bacterial load of thigh muscle tissue) (group 7: total daily dose 480 mg/kg, single dose 240 mg/kg, q12h s.c.): 2.88E+09 CFU/Mouse
Average CFU of Mouse (bacterial load of thigh muscle tissue) (group 8: total daily dose 480 mg/kg, single dose 480 mg/kg, q24h s.c.): 8.73E+09 CFU/Mouse
Average CFU of Mouse (bacterial load of thigh muscle tissue) (group 9: total daily dose 160 mg/kg, single dose 20 mg/kg, q3h s.c.): 2.10E+06 CFU/Mouse
Average CFU of Mouse (bacterial load of thigh muscle tissue) (group 10: total daily dose 160 mg/kg, single dose 40 mg/kg, q6h s.c.): 4.67E+08 CFU/Mouse
Average CFU of Mouse (bacterial load of thigh muscle tissue) (group 11: total daily dose 160 mg/kg, single dose 80 mg/kg, q12h s.c.): 7.88E+09 CFU/Mouse
Average CFU of Mouse (bacterial load of thigh muscle tissue) (group 12: total daily dose 160 mg/kg, single dose 160 mg/kg, q24h s.c.): 1.22E+10 CFU/Mouse
Average CFU of Mouse (bacterial load of thigh muscle tissue) (group 13: total daily dose 48 mg/kg, single dose 6 mg/kg, q3h s.c.): 4.07E+06 CFU/Mouse
Average CFU of Mouse (bacterial load of thigh muscle tissue) (group 14: total daily dose 48 mg/kg, single dose 12 mg/kg, q6h s.c.): 1.57E+09 CFU/Mouse
Average CFU of Mouse (bacterial load of thigh muscle tissue) (group 15: total daily dose 48 mg/kg, single dose 24 mg/kg, q12h s.c.): 8.70E+09 CFU/Mouse
Average CFU of Mouse (bacterial load of thigh muscle tissue) (group 16: total daily dose 48 mg/kg, single dose 48 mg/kg, q24h s.c.): 1.32E+10 CFU/Mouse
Average CFU of Mouse (bacterial load of thigh muscle tissue) (group 17: total daily dose 16 mg/kg, single dose 2 mg/kg, q3h s.c.): 7.77E+07 CFU/Mouse
Average CFU of Mouse (bacterial load of thigh muscle tissue) (group 18: total daily dose 16 mg/kg, single dose 4 mg/kg, q6h s.c.): 2.92E+09 CFU/Mouse
Average CFU of Mouse (bacterial load of thigh muscle tissue) (group 19: total daily dose 16 mg/kg, single dose 8 mg/kg, q12h s.c.): 6.93E+09 CFU/Mouse
Average CFU of Mouse (bacterial load of thigh muscle tissue) (group 20: total daily dose 16 mg/kg, single dose 16 mg/kg, q24h s.c.): 1.44E+10 CFU/Mouse
Average CFU of Mouse (bacterial load of thigh muscle tissue) (group 21: total daily dose 4.8 mg/kg, single dose 0.6 mg/kg, q3h s.c.): 7.22E+08 CFU/Mouse
Average CFU of Mouse (bacterial load of thigh muscle tissue) (group 22: total daily dose 4.8 mg/kg, single dose 1.2 mg/kg, q6h s.c.): 4.55E+09 CFU/Mouse
Average CFU of Mouse (bacterial load of thigh muscle tissue) (group 23: total daily dose 4.8 mg/kg, single dose 2.4 mg/kg, q12h s.c.): 7.60E+09 CFU/Mouse
Average CFU of Mouse (bacterial load of thigh muscle tissue) (group 24: total daily dose 4.8 mg/kg, single dose 4.8 mg/kg, q24h s.c.): 1.27E+10 CFU/Mouse
Antibacterial effect in vivo (conclusion) (mouse thigh muscle infection, subcutaneous, 26 h after infection): significant antibacterial effect in vivo
Effect of shortening the administration interval (conclusion) (same daily dose, q3 h, q6 h, q12 h, q24 h): significantly improve the efficacy in vivo
Dose-effect relationship (conclusion) (total daily dose 4.8 to 1600 mg/kg): significant
